Laboratory results as given in patent US20230041065A1, “METHODS FOR GENERATING HEMATOPOIETIC STEM CELLS” (The Brigham and Women`s Hospital, Inc., priority 2019, published 2023).
Entries after “also recorded” stand apart in the source; their conditions may differ.

How the values were obtained:
[1] = system: E11.5 AGM cells; test: Whole transcriptome (RNA-seq) analyses of treated E11.5 AGM cells; format: cell-based, mouse
Experimental: (§1) RNA-sequencing analyses were performed to measure gene expression patterns in mouse AGM treated with cyclic strain or pharmacological modulators. Using computational algorithms, hierarchical clustering was performed of differentially expressed genes as well as measured their overrepresented biological processes and pathways. Gene expression clusters of differentially expressed genes were analyzed and their mean expression level across cell populations compared. Next, Venn comparison of up- and down-genes was constructed to analyze candidate(s) important for cyclic strain- or pharmacological modulator(s)-mediated the endothelial-to-HSC transition. Furthermore, Dnmt3b and Dnmt3a protein expressions were analyzed in nuclear fractions of mouse AGM cells using EqiQuick assay kits. Data are presented as mean±s.d. unless otherwise noted. Statistical analyses were performed by paired or un-paired Student's t-tests. Significance was set at P<0.05.
Total RNA from E11.5 mouse AGM explant cultures was isolated (control, stretch, Yoda1 and 4αPDD conditions) with the RNAeasy MiniKit (QIAGEN). Our cDNA libraries were generated by BGI Americas Corporation and sequenced with a HiSeq4000 device (Illumina) at eight samples per lane. We mapped our sequenced read fragments to the mouse reference genome GRCm38 (ENSEMBL release 69) using the Genomic Short-Read Nucleotide Alignment program (version 2012-07-20). DESeq2 and DEXSeq were used to test for differential expression (FDR=0.1) and differential exon use, respectively. Gene expression clusters of differentially expressed genes were analyzed and their mean expression level across cell populations compared. Next, Venn comparison was performed of up- and down-genes to analyze candidate(s) important for cyclic strain- or pharmacological modulator(s)-mediating the endothelial-to-HSC transition. Specifically, we performed hierarchical clustering with bootstrap analyses using the gplots package (Warners et al., 2017) in R (R Development Core Team, 2012). […]

[2] = system: cd41:eGFP+ HSCs emerging from flk1:mCherry+ endothelial cells; test: Time-lapse confocal imaging of cd41:eGFP+ HSCs emerging from flk1:mCherry+ endothelial cells in transgenic embryos; format: in vivo, zebrafish; conditions: 26-42 hpf
Experimental: Mice were purchased Cd45.2 (C57BL6/J) and Cd45.1 (SJL) from The Jackson Laboratory and zebrafish morpholinos from GeneTools. Microangiography was performed by injecting fluorescent-labeled dextran dye in the atrium of zebrafish heart and its passage was recorded using live imaging. Immunostaining of zebrafish heart and mouse AGM were analyzed using an inverted fluorescent microscope. Cardiac tamponade, heart rate, and pulse frequency were analyzed in zebrafish embryos using bright field imaging or time-lapse confocal microscopy. The movement of red blood cells in blood vessels was analyzed as well as the endothelial-to-HSC transition in zebrafish transgenic embryos using time-lapse confocal imaging.
Zebrafish embryos were treated with the following chemical modulators in E3 fish media: 100 uM L-NAME (Fisher Scientific), 50 uM Digitoxigenin (Sigma), 25-50 uM Yoda1 (Cayman Chemical), 1 uM Nanaomycin (Nana; Fisher Scientific), 100 uM Gadolinium chloride (GdCl3; Sigma), 5-10 uM 4α-phorbol 12, 13-didecanaote (4Apdd; Sigma), or GSK205 (10 uM).
cd41:eGFP were crossed with flk1:mCherry zebrafish and flk1:mCherry with lcr:eGFP zebrafish and injected morpholino in their transgenic embryos. […] The relative movement of lcr:eGFP^+ red blood cells was analyzed in the context of flk1:mCherry^+ endothelium. We performed image analysis using Imaris (Bitplane) software.

[3] = system: Dnmt3b; test: Dnmt3b protein level in nuclear fractions of E11.5 AGM cells; format: cell-based, mouse
Experimental: as §1
Nuclear extracts from AGM explants were harvested using an EpiQuik Nuclear Extraction Kit (Epigentek Group Inc.). Dnmt3b and Dnmt3a protein levels were analyzed using a colorimetric EpiQuik Assay Kit (Epigentek Group Inc.), according to the manufacturer's instructions. Concentration of Dnmt3b and Dnmt3a is relative to 1 μg of nuclear extract proteins.

Question: `Clc1cccc(Cl)c1CSc1nnc(-c2cnccn2)s1` [Yoda1, 2-[5-[[(2,6-Dichlorophenyl)methyl]thio]-1,3,4-thiadiazol-2-yl]-pyrazine] was tested. Which “Dnmt3b and Gimap6 transcript expression (Venn comparison of up-regulated genes)” value [1] did it give?
Answer: specifically stimulate Dnmt3b transcript expression and Gimap6 transcript expression

Question: What about the “expression of endothelial genes” value [1] of the same molecule?
Answer: diminished expression of endothelial genes; also recorded: repress the expression of endothelial genes

Question: And the “expression of hematopoietic genes” value [1]?
Answer: elevated expression of hematopoietic genes; also recorded: stimulating the expression of hematopoietic genes

Question: And the “HSC formation (endothelial-to-HSC transition)” value ([2]; control embryos)?
Answer: stimulates HSC formation in control embryos

Question: And the “HSC formation (endothelial-to-HSC transition)” value ([2]; sih-MO embryos)?
Answer: rescues HSC formation in sih-MO embryos

Question: And the Dnmt3b protein expression [3]?
Answer: specifically stimulates Dnmt3b protein expression levels
